Test results from ChEMBL document CHEMBL5303573, “Mapping human microbiome drug metabolism by gut bacteria and their genes” (Nature, 2019).

Key:
Format in all cases: ADME
Design in all cases: dose 2 uM
Settings in all cases: 2 µM
[1] = biological target: T1, NADH dehydrogenase/NAD(P)H nitroreductase (Bacteroides thetaiotaomicron, UniProt Q8A8L9); assay: (§1) The drug is tested on Bacteroides thetaiotaomicron strain: VPI-5482 for biotransformation. The drug concentrations were measured before and after a 12-h incubation by liquid-chromatography-coupled mass spectrometry (LC–MS)
T1 sequence (Q8A8L9 whole entry): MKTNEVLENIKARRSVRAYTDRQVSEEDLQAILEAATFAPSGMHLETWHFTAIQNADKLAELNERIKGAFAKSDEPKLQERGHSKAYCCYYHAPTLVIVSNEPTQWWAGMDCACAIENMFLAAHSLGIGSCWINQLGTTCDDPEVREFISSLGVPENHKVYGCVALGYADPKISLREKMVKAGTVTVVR

[2] = biological target: T2, Nitroreductase-like protein (Bacteroides thetaiotaomicron, UniProt Q8AB93); assay: as §1
T2 sequence (Q8AB93 whole entry): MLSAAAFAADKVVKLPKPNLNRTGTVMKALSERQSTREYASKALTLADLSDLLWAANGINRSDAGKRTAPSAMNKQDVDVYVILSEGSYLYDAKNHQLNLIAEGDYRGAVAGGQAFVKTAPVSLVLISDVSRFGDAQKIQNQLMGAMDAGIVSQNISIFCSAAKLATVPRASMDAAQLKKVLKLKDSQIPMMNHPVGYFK

[3] = biological target: T3, Sialic acid-specific acetylesterase (Bacteroides thetaiotaomicron, UniProt Q8A331); assay: as §1
T3 sequence (Q8A331 whole entry): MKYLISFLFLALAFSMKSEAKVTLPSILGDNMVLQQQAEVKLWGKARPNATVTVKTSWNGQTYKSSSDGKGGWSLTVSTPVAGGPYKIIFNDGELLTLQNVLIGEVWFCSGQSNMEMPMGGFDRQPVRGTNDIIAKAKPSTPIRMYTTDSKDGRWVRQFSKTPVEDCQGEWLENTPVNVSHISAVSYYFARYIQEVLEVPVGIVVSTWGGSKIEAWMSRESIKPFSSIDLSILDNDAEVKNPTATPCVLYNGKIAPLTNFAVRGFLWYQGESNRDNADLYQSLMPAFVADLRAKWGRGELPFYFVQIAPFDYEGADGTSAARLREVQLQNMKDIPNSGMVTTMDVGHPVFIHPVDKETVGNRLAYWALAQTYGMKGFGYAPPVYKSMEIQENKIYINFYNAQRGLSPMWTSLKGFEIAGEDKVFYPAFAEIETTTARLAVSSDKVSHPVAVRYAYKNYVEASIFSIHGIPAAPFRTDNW

[4] = biological target: T4, Xylanase (Bacteroides thetaiotaomicron, UniProt Q8A8H5); assay: as §1
T4 sequence (Q8A8H5 whole entry): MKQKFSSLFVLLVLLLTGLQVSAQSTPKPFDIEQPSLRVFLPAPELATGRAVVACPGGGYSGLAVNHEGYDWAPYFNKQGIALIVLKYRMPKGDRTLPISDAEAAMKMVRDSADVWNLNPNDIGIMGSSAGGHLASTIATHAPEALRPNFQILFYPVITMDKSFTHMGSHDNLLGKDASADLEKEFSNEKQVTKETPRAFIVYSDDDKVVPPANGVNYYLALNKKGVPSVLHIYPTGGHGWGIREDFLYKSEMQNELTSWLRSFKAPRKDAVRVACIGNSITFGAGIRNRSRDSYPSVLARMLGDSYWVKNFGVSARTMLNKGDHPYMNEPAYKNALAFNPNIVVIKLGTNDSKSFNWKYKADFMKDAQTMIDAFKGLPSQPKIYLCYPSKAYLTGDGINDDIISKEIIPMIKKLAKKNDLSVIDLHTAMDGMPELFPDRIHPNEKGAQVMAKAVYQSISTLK

[5] = biological target: T5, 3-oxo-5-alpha-steroid 4-dehydrogenase (Bacteroides thetaiotaomicron, UniProt Q8A618); assay: as §1
T5 sequence (Q8A618 whole entry): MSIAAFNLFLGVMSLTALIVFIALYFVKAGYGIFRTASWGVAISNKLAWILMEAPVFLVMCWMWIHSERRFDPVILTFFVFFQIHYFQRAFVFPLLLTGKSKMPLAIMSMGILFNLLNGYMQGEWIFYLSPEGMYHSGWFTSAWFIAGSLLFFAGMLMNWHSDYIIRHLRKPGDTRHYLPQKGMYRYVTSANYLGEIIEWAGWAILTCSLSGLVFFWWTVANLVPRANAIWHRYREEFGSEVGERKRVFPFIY

[6] = biological target: T6, Lipolytic enzyme, G-D-S-L family (Bacteroides thetaiotaomicron, UniProt Q8A0E6); assay: as §1
T6 sequence (Q8A0E6 whole entry): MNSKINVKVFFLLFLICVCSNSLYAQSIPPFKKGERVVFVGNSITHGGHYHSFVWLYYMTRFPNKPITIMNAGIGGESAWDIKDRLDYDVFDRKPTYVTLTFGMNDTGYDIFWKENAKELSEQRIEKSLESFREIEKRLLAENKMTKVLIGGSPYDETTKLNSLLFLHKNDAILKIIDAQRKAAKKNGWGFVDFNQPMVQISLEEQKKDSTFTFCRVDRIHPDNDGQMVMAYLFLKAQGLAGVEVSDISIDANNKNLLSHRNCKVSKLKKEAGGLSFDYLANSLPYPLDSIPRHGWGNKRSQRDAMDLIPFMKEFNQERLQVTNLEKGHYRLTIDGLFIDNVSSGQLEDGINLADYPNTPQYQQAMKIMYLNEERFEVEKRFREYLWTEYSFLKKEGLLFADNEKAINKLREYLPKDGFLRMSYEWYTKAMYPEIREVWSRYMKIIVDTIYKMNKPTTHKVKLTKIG

[7] = biological target: T7, Lipolytic enzyme, G-D-S-L family (Bacteroides thetaiotaomicron, UniProt Q8A0C5); assay: as §1
T7 sequence (Q8A0C5 whole entry): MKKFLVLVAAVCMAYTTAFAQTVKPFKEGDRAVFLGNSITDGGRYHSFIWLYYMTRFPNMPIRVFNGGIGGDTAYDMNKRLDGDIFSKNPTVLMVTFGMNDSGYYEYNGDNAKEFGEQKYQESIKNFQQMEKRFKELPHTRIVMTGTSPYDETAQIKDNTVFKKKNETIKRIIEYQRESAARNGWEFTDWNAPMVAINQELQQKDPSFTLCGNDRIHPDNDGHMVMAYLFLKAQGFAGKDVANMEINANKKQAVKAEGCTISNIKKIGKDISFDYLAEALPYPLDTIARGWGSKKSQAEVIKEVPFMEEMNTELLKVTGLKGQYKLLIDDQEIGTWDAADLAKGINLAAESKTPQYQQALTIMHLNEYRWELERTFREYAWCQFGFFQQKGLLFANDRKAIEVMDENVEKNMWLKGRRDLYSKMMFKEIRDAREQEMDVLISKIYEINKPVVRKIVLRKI

[8] = biological target: T8, Nitroreductase (Bacteroides thetaiotaomicron, UniProt Q8A911); assay: as §1
T8 sequence (Q8A911 whole entry): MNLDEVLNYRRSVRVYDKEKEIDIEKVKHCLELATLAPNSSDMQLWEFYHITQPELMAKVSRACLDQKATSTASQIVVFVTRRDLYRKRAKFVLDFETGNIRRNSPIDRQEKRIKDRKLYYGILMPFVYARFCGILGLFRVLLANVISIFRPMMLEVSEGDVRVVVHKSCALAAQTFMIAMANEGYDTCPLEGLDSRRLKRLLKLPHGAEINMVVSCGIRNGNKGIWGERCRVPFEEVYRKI

[9] = biological target: General stress protein (Bacteroides thetaiotaomicron, UniProt Q8A7U5); assay: as §1
Chain of General stress protein (Q8A7U5 1-138, change not shown): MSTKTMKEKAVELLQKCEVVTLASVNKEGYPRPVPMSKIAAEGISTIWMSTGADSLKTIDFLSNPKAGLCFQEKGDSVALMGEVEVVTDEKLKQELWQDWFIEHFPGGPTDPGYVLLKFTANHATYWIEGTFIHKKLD

Bacterial Biotransformation [1] | Bacterial Biotransformation [2] | Bacterial Biotransformation [3] | Bacterial Biotransformation [4] | Bacterial Biotransformation [5] | Bacterial Biotransformation [6] | Bacterial Biotransformation [7] | Bacterial Biotransformation [8] | Bacterial Biotransformation [9] | Structure (SMILES)
Compound NOT metabolized | Compound NOT metabolized | Compound metabolized | Compound metabolized | Compound NOT metabolized | Compound NOT metabolized | Compound metabolized | Compound NOT metabolized | Compound NOT metabolized | CC(=O)Oc1ccc(C(c2ccc(OC(C)=O)cc2)c2ccccn2)cc1 [BISACODYL]
Compound NOT metabolized | Compound NOT metabolized | Compound NOT metabolized | Compound NOT metabolized | Compound NOT metabolized | Compound NOT metabolized | Compound NOT metabolized | Compound NOT metabolized | Compound NOT metabolized | C#C[C@]1(O)CC[C@H]2[C@@H]3CCC4=Cc5oncc5C[C@]4(C)[C@H]3CC[C@@]21C [DANAZOL]
Compound NOT metabolized | Compound NOT metabolized | – | Compound NOT metabolized | Compound NOT metabolized | Compound NOT metabolized | Compound metabolized | Compound NOT metabolized | Compound NOT metabolized | CC(=O)OCC(=O)[C@@]12N=C(C)O[C@@H]1C[C@H]1[C@@H]3CCC4=CC(=O)C=C[C@]4(C)[C@H]3[C@@H](O)C[C@@]12C [DEFLAZACORT]
Compound NOT metabolized | Compound NOT metabolized | Compound metabolized | Compound metabolized | Compound NOT metabolized | Compound NOT metabolized | Compound metabolized | Compound NOT metabolized | Compound NOT metabolized | CC(=O)Nc1ccc(OC(C)=O)cc1 [DIACETAMATE]
Compound metabolized | Compound metabolized | Compound NOT metabolized | Compound NOT metabolized | Compound NOT metabolized | Compound NOT metabolized | Compound NOT metabolized | Compound NOT metabolized | Compound NOT metabolized | CCN(CC)C(=O)/C(C#N)=C/c1cc(O)c(O)c([N+](=O)[O-])c1 [ENTACAPONE]
– | Compound metabolized | Compound NOT metabolized | Compound metabolized | Compound NOT metabolized | Compound NOT metabolized | Compound NOT metabolized | Compound NOT metabolized | Compound NOT metabolized | CCOC(=O)C1=C(C)NC(C)=C(C(=O)OC)C1c1cccc([N+](=O)[O-])c1 (centres undefined) [NITRENDIPINE]
Compound NOT metabolized | Compound NOT metabolized | Compound NOT metabolized | Compound NOT metabolized | Compound NOT metabolized | Compound NOT metabolized | Compound NOT metabolized | Compound NOT metabolized | Compound NOT metabolized | COc1ccnc(C[S+]([O-])c2nc3ccc(OC(F)F)cc3[nH]2)c1OC (centres undefined) [PANTOPRAZOLE]
Compound NOT metabolized | Compound NOT metabolized | Compound NOT metabolized | Compound NOT metabolized | Compound NOT metabolized | Compound NOT metabolized | Compound NOT metabolized | Compound NOT metabolized | Compound metabolized | Nc1ccc(/N=N/c2ccccc2)c(N)n1 [PHENAZOPYRIDINE]
Compound NOT metabolized | Compound NOT metabolized | Compound NOT metabolized | Compound metabolized | Compound NOT metabolized | – | Compound metabolized | Compound NOT metabolized | Compound NOT metabolized | CC(=O)OCC(=O)NCCCOc1cccc(CN2CCCCC2)c1 [ROXATIDINE ACETATE]
Compound NOT metabolized | Compound metabolized | Compound NOT metabolized | – | Compound NOT metabolized | Compound NOT metabolized | – | Compound NOT metabolized | Compound metabolized | O=C(O)c1cc(/N=N/c2ccc(S(=O)(=O)Nc3ccccn3)cc2)ccc1O [SULFASALAZINE]

Structure (SMILES) | Bacterial Biotransformation [1] | Bacterial Biotransformation [2] | Bacterial Biotransformation [3] | Bacterial Biotransformation [4] | Bacterial Biotransformation [5] | Bacterial Biotransformation [6] | Bacterial Biotransformation [7] | Bacterial Biotransformation [8] | Bacterial Biotransformation [9]
C[C@@H]1CC[C@H]2[C@@H](C)C(=O)O[C@@H]3O[C@@]4(C)CC[C@@H]1[C@]32OO4 [ARTEMISININ] | Compound NOT metabolized | Compound NOT metabolized | Compound NOT metabolized | Compound NOT metabolized | Compound NOT metabolized | Compound NOT metabolized | Compound NOT metabolized | Compound NOT metabolized | Compound metabolized
